Data on 13 compounds can be found in US4254285A, “1-Hydroxymethyl-1-1-oxo prostane derivatives of the E and F series” (American Cyanamid Company, priority 1979, dated 1981).

For series [1], the system named is bronchospasms elicited by acetylcholine. Put plainly: Bronchodilator Activity (Konzett Assay), acetylcholine. Format: in vivo. As to conditions: guinea pig, intravenous, spasmogen acetylcholine, three logarithmic cumulative doses. As to the method:
(§1) The bronchodilator activity of some of the PGE compounds of this invention is determined in guinea pigs against bronchospasms elicited by intravenous injections of 5-hydroxytryptamine, histamine or acetylcholine by the Konzett procedure. [See J. Lulling, P. Lievens, F. El Sayed and J. Prignot, Arzneimittel-Forschung, 18, 995 (1968)].
(§2) In the Table B which follows, bronchodilator activity for representative compounds of this invention against one or more of the three spasmogenic agents is expressed as an ED50 determined from the results obtained with three logarithmic cumulative intravenous doses.

Series [2] deals with bronchospasms elicited by 5-hydroxytryptamine. The series is described as follows: Bronchodilator Activity (Konzett Assay), 5-hydroxytryptamine. The settings on record: guinea pig, intravenous, spasmogen 5-hydroxytryptamine, three logarithmic cumulative doses. Format: in vivo. As to the method: as §1, §2
Series [3] relates to bronchospasms elicited by histamine. Put plainly: Bronchodilator Activity (Konzett Assay), histamine. Format: in vivo. The settings on record: guinea pig, intravenous, spasmogen histamine, three logarithmic cumulative doses. As to the method: as §1, §2
Series [4] concerns continuous respiratory spasm induced by pilocarpine. The series is described as follows: Bronchodilator Activity (Pilocarpine Assay). Format: in vivo. The settings on record: dog, aerosol, 3.2 mg/ml; for inhibition at 3200 µg/mL: Canis lupus familiaris, inhaled or nasal. As to the method: The PGE compounds of this invention also have bronchodilator activity as determined in a test using dogs anesthetized, artificially ventilated and submitted to a continuous respiratory spasm induced by pilocarpine. Mongrel dogs of either sex weighing between 5 and 10 kg are used. They are premedicated with morphine HCl by subcutaneous injection at 1.5 mg/Kg. An intravenous perfusion of 5% (W/V) chloralose is started 1/2 hour after the morphine injection in such a way that 60 mg/Kg are administered within 15 minutes. After completion, a continuous perfusion of 10 mg/Kg hour is maintained throughout the experiment. The dogs are artificially ventilated by means of a Starling pump at a rate of 20 breaths/minute. The volume is adjusted according to the weight of the animal. [Kleinman and Radford, J. Appl. Physiol., 19, 360 (1964)]. All the measurements are made with the dogs positioned supine in a heated, V-shaped table. Curarization is obtained by succinylcholine chloride using a starting injection of 3 mg/Kg lasting 3 minutes, followed by a continuous perfusion of 0.1 mg/Kg/minute. The respiratory spasm is induced by a starting injection of 400 mcg/Kg of pilocarpine HCl lasting 5 minutes. An increase or decrease in the dose of pilocarpine HCl may occur as a function of the observed effect on airway's resistance. A 15 minute delay is observed before the start of a continuous perfusion of pilocarpine HCl at a dose of 4 mcg/Kg/minute to maintain a constant spasm during the test. A metallic cannula is inserted and fixed, after tracheotomy, into the upper part of the trachea. The two cephalic veins and the two femoral veins are catheterized to inject the various agents. The femoral artery is catheterized to measure the systemic blood pressure. An esophageal balloon (11 cm×2.5 cm) is inserted into the lower third of the oesophagus to measure the endothoracic pressure. The measurement of air flow is made with a […] pneumotachograph connected to the tracheal tube. The transpulmonary pressure is measured as follows: The tracheal cannula is equipped with a stainless steel axial tube (1.5 mm) which is closed at its distal end and projected 2.5 cm beyond the end of the cannula. Three holes with a diameter of one mm are pierced on this latter segment. This tube, which is used to measure the tracheal pressure, is connected to one of the two chambers of a Sanborn 267 B/C differential transducer. The other chamber is connected to the esophageal balloon by means of a polyethylene catheter of the same length and characteristics as the balloon's. The airway's resistance, expressed in cm of water/liter/second, is measured by subtracting from the electrical equivalent of the transpulmonary pressure, a voltage proportional to the flow so as to synchronize the pressure and volume signals on the oscilloscope [Mead and Whittenberger, J. Appl. Physiol, 5, 779 (1953)]. The test compounds are administered by an Aerosol® route. The micronebulizer of a Bird Mark 7 respirator is fitted on the metallic cannula just after the pneumotachograph. The "puff" of the test compound, in Aerosol® is driven by a 2 Kg/cm^2 pressure, allowed into the micronebulizer just during one inspiration cycle. The micronebulizer is fitted on the respiratory tube only during the "puff". It is weighed just before and just after administration to determine the amount of test compound administered.

Series [5] is classed as in vivo, rat. As to conditions: indomethacin-only treatment, 10 mg/kg subcut. As to the method:
(§3) Male Wistar rats (Royal Hart, New Hampton, N.Y.), weighing 190-210 g are distributed among control and treatment groups (5 rats/group) and housed one rat per cage. During the 52 hour test period, the rats are permitted free access to food and drinking water for the first 33 hours but are fasted overnight prior to sacrifice. Indomethacin is suspended (4 mg/ml) in a 1.5% starch-phosphate buffer solution (SPBS). 1,9-dioxo-11α,16-dihydroxy-16-methyl-1-hydroxymethyl-13-transprostene is dissolved at 10 mg/ml in ethanol and then diluted in SPBS to 0.1 mg/ml or to a lower concentration as required. The indomethacin suspension is injected subcutaneously (10 mg/kg) and the prostaglandin suspension is given by gavage (0.5 mg/kg or less) b.i.d. on day 0 and 1. Rats receive only one dose of prostaglandin and indomethacin on day 2 and 6 hours later are killed with chloroform. The stomachs are dissected, opened along the greater curvature, and rinsed briefly in tap water. They are then spread, mucosal surface facing upward and pinned onto uniform size corks (2.5 inch diameter) individually numbered on the back. The identification number for each stomach is unknown to the investigator and the stomachs are randomly graded according to the following scheme:
(§4) ^a Treatment is B.I.D. on days 0 and 1, and once on day 2, six hours
(§5) prior to sacrifice for scoring.

Series [6] has as its system indomethacin-induced intestinal ulcers. Format: in vivo, rat. The settings on record: indomethacin-only treatment, 10 mg/kg subcut. As to the method:
as §3
Intestines are also removed and examined for the presence of ulcers, which are graded according to the scheme outlined below.
1--Mucosa thin, petechial hemorrhage
2--"Blow-outs", when intestine inflated with air
3--Few ulcers. Gut more fragile than normal, tears along line of mesentery attachements when removed
4--Many large perforating lesions. Adhesions. Gut hemorrhagic and very fragile. Tears readily and cannot be removed intact. Graded in situ.
as §4, §5

The test system of series [7] is indomethacin-induced gastric ulcers. The series is classed as in vivo, rat. As to conditions: indomethacin-only treatment, 10 mg/kg subcut. As to the method: as §3
1--Petechial hemorrhage, or pin-point ulcers
2--One or two small ulcers or hemorrhagic erosions
3--Many areas of hemorrhage erosion or ulcers, a few large
4--Massive areas of hemorrhagic erosion or many ulcers, mainly large
as §4, §5

The mark [8] stands for this setting: Cavia porcellus, read-out: ED50.
The mark [9] stands for this setting: 5 min, 5 min. after drug administration.
Where [10] appears, read: 0.5 h, 30 min. after drug administration.
Setting [11] is: 1 h, 60 min. after drug administration.

Where two headings read alike, the source gives them in different places.

In the case of `CCCCCC(C)(O)CC=CC1C(O)CC(=O)C1CC=CCCCC(=O)CO` (stereo not drawn) [1,9-dioxo-11α,16-dihydroxy-16,20-dimethyl-1-hydroxymethyl-13-trans-5-cis-prostadiene], the ED50 (in general, the dose at which the effect has come halfway, by size or by number of responders) in series [1] (setting [8]) was found to be 19 µg/kg; in series [2] (setting [8]), 47 µg/kg; in series [3] (setting [8]) it was 8.8 µg/kg.
In the case of `CCCCCC(O)C=CC1C(O)CC(=O)C1CCCCCCC(=O)CO` (stereo not drawn) [1,9-dioxo-11α,15α-dihydroxy-1-hydroxymethyl-13-trans-prostene], the ED50 was determined as 3.9 µg/kg in series [1] (setting [8]), 0.936 µg/kg in series [2] (setting [8]) and 0.547 µg/kg in series [3] (setting [8]). For the same compound, the inhibition – broadly, the percentage by which the read-out fell short of the control – at 3200 µg/mL is 80% in series [4] (setting [9]), 40% in series [4] (setting [10]) and 15% in series [4] (setting [11]).
Regarding `CCCCCC(O)CCC1CCC(=O)C1CCCCCCC(=O)CO` [l-1,9-dioxo-15(S)-hydroxy-1-hydroxymethyl prostane], the figures for the ED50 in series [2] (setting [8]) and in series [3] (setting [8]) were 0.89 µg/kg and 0.471 µg/kg, respectively. Also, the inhibition at 3200 µg/mL amounted to 70% in series [4] (setting [9]), 45% in series [4] (setting [10]) and 30% in series [4] (setting [11]).
For `CCCCC1(C(O)C=CC2C(O)CC(=O)C2CC=CCCCC(=O)CO)CCC1` (stereo not drawn) [1,9-dioxo-11α,15-dihydroxy-1-hydroxymethyl-16,16-trimethylene-13-trans-5-cis-prostadiene], the inhibition at 3200 µg/mL is 80% in series [4] (setting [9]), 74% in series [4] (setting [10]) and 68% in series [4] (setting [11]).
`C=CC(O)(CC=CC1C(O)CC(=O)C1CC=CCCCC(=O)CO)CCCC` (stereo not shown): the ED50 in series [1] (setting [8]) was 2.66 µg/kg; in series [2] (setting [8]), 0.402 µg/kg; in series [3] (setting [8]), 0.254 µg/kg. Besides, the inhibition at 3200 µg/mL in series [4] (setting [9]) is 80%; in series [4] (setting [10]), 80%; in series [4] (setting [11]) it was 66%.
`COc1ccc2c(c1)c(CC(=O)O)c(C)n2C(=O)c1ccc(Cl)cc1` [Indomethacin, reference compound]: the “Hematocrit (Mean ± S.E.M.)” value in series [5] is recorded as 33.1 ± 2.1. In addition, the “Intestinal Ulcer Score (Mean ± S.E.M.)” value in series [6] is on record as 3.7 ± 0.2. For the same compound, in series [7], the “Gastric Ulcer Score (Mean ± S.E.M.)” value is given as 2.9 ± 0.2.
With `CCCCC1(C(O)C=CC2C(O)CC(=O)C2CCCCCCC(=O)CO)CCC1` (stereo not drawn) [1,9-dioxo-11α,15-dihydroxy-1-hydroxymethyl-16,16-trimethylene-13-trans-prostene], the figures for the ED50 in series [1] (setting [8]), in series [2] (setting [8]) and in series [3] (setting [8]) were 1.3 µg/kg, 1.4 µg/kg and 0.734 µg/kg, respectively. Besides, the inhibition at 3200 µg/mL in series [4] (setting [9]) turned out to be 90%; in series [4] (setting [10]), 75%; in series [4] (setting [11]) it was 60%.
Regarding `C=CC(O)(CC=CC1C(O)CC(=O)C1CC=CCCCC(=O)COC(C)=O)CCCC` (stereo not drawn) [1,9-Dioxo-11α,16-dihydroxy-16-vinyl-1-acetoxymethyl-5-cis-13-trans-prostadiene], the ED50 was 0.795 µg/kg in series [1] (setting [8]) and 0.78 µg/kg in series [3] (setting [8]). In addition, the inhibition at 3200 µg/mL in series [4] (setting [9]) was determined as 92%; in series [4] (setting [10]) it was 75%; in series [4] (setting [11]) it was 55%.
Consider `C=CC(O)(CC=CC1C(O)CC(=O)C1CCCCCCC(=O)CO)CCCC` (stereo not drawn) [1,9-dioxo-11α,16-dihydroxy-1-hydroxymethyl-16-vinyl-13-trans-prostene], for which the ED50 in series [1] (setting [8]) was 1.7 µg/kg; in series [2] (setting [8]), 0.147 µg/kg; in series [3] (setting [8]), 0.25 µg/kg. Further, the inhibition at 3200 µg/mL turned out to be 90% in series [4] (setting [9]), 80% in series [4] (setting [10]) and 70% in series [4] (setting [11]).
For the compound `CCCCC1(C(O)/C=C/C2C(O)CC(=O)C2C/C=C\CCCC=O)CCC1` (stereo not drawn) [1,9-dioxo-11α,15α-dihydroxy-16,16-trimethylene-5-cis,13-trans-prostadiene], the ED50 in series [1] is 0.995 µg/kg; in series [2], 1.49 µg/kg; in series [3] it was 0.781 µg/kg.
`CCCCCC(C)(O)/C=C/C1CCC(=O)C1CCCCCCC(=O)CO` (stereo not drawn) [1,9-dioxo-15α-hydroxy-15-methyl-1-hydroxymethyl-13-trans-prostene]: the values for the ED50 in series [1], in series [2] and in series [3] were 0.293 µg/kg, 0.288 µg/kg and 0.373 µg/kg, respectively. The “% Inhibition of pilocarpine induced spasm” value came to 37% in series [4] (5 min. after drug administration), 30% in series [4] (30 min. after drug administration) and 30% in series [4] (60 min. after drug administration).
Take `CCCCCC(C)(O)CC=CC1C(O)CC(=O)C1CCCCCCC(=O)CO` (stereo not drawn) [1,9-dioxo-11α,16-dihydroxy-16,20-dimethyl-1-hydroxymethyl-13-trans-prostene]: the inhibition at 3200 µg/mL in series [4] (setting [9]) amounted to 55%; in series [4] (setting [10]) it was 70%; in series [4] (setting [11]), 55%.
With `CCCCC(O)(CC)CC=CC1C(O)CC(=O)C1CC=CCCCC(=O)CO` (stereo not drawn) [1,9-dioxo-11α,16-dihydroxy-16-ethyl-1-hydroxymethyl-5-cis-13-trans-prostadiene], the inhibition at 3200 µg/mL in series [4] (setting [9]) is 70%; in series [4] (setting [10]) it was 50%; in series [4] (setting [11]) it was 35%.
